Measured values from ChEMBL document CHEMBL1201862, “PubChem BioAssay data set” (2004).
The source made the active and inactive calls.

How the values were obtained:
[1] = biological target: Alkaline phosphatase, placental type (Homo sapiens, UniProt P05187); experiment: PLAP enzyme inhibitors, confirmation, biochemical, luminescence (AID 1512); format: functional
[2] = biological target: Neurotensin receptor type 1 (Homo sapiens, UniProt P30989); format: functional;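 note: Image-based confirmatory dose-response assay measuring agonist activity at NTR1; NTR1-expressing U2OS osteosarcoma cells imaged for beta-arrestin GFP spot formation; agonist potency where compounds increase beta-arrestin recruitment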
Insulin-degrading enzyme = biological target: T1, Insulin-degrading enzyme (Homo sapiens, UniProt P14735); experiment: Dose Response: Fluorescence polarization-based cell-based high throughput dose response assay for inhibitors of insulin-degrading enzyme (IDE). [Related pubchem assays: 434962 (Primary screen (IDE inhibitors in singlicate)), 449730 (Counterscreen (Cytotoxicity in triplicate)), 435028 (Confirmation (IDE inhibitors in triplicate)), 434984 (Summary …; format: functional
T1 sequence (P14735 whole entry): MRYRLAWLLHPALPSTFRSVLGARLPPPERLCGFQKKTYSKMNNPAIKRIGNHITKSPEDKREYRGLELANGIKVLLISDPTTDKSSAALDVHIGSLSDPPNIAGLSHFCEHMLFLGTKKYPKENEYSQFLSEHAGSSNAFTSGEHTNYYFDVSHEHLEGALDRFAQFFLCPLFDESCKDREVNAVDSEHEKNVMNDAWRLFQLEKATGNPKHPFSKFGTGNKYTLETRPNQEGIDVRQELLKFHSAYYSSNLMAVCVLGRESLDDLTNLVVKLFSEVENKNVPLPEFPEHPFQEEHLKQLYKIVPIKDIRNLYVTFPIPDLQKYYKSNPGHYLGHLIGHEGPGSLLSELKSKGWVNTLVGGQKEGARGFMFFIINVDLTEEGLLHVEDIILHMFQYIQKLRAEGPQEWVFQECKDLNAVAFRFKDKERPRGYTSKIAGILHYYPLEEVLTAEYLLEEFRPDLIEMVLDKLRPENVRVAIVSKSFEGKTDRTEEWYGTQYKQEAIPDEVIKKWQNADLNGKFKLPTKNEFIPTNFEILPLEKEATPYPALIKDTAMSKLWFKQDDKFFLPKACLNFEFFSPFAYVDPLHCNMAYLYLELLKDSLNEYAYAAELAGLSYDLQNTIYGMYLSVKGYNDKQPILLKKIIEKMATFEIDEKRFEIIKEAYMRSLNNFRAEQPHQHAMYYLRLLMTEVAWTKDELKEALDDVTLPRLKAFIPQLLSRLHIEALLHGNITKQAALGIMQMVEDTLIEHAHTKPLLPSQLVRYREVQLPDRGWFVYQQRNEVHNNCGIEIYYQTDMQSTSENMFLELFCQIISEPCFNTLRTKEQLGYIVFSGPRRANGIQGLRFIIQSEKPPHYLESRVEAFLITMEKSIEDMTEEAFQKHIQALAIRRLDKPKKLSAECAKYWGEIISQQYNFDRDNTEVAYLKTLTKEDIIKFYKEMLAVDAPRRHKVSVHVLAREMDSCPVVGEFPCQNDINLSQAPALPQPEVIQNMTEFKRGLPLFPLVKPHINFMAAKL

[3] = Counterscreen for IDE inhibitors: Luminescence-based cell-based high throughput dose response assay to identify compounds that are cytotoxic to HEK cells. [Related pubchem assays: 434962 (Primary screen (IDE inhibitors in singlicate)), 449730 (Counterscreen (Cytotoxicity in triplicate)), 435028 (Confirmation (IDE inhibitors in triplicate)) …; format: functional; conditions: HEK293
Melanocortin receptor 4 = Melanocortin receptor 4 (Homo sapiens, UniProt P32245); experiment: MC4R antagonist potency on cAMP, dose response, cell-based, TR-FRET, biased antagonists (AID 602298); format: functional;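 note: antagonist potency against agonist-stimulated cAMP production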
[4] = nonselective inhibitors of cellular cAMP signaling, dose response, counter-screen for MC4R biased antagonist project, cell-based, TR-FRET cAMP detection (AID 602305); format: functional;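 note: U2OS cells stimulated with forskolin near its EC80 as the cAMP inducer; potency is for inhibition of forskolin-stimulated cAMP signaling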
BJ [5] = experiment: cells; format: functional, cell-based; conditions: Homo sapiens
[6] = biological target: FAD-linked sulfhydryl oxidase ALR (Homo sapiens, UniProt P55789); experiment: inhibitors of human ALR sulfhydryl oxidase, dose response, biochemical, H2O2 detection, luminescence, cherry-pick (AID 493248)
[7] = growth suppression of PTEN-null colon cells, dose response, cell-based, HCT116 PTEN knockout (AID 1047); format: functional;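 note: HCT116 colon tumor cells with PTEN knocked out; cells exposed to compound for 60 hours before readout; potency for loss of cell viability measured by luminescence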
[8] = growth suppression of beta-catenin-knockout colon cells, dose response, cell-based, HCT116, human colon tumor (AID 1045); format: functional;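 note: HCT116 colon tumor cells with beta catenin knocked out; cells exposed to compound for 60 hours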
BJ [9] = experiment: cytotoxicity toward BJ-TERT-LT-ST fibroblasts, dose response, cell-based, RAS-independent, luminescence (AID 1935); format: functional; conditions: Homo sapiens;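 note: BJ fibroblasts immortalized with TERT plus LT and ST oncogenes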
[10] = cytotoxicity toward DRD oncogenic fibroblasts, dose response, cell-based, non-viral oncogenic, luminescence (AID 1934); format: functional; conditions: Homo sapiens
BJ [11] = experiment: cytotoxicity toward BJ-TERT fibroblasts, dose response, cell-based, RAS-independent, luminescence (AID 1933); format: functional; conditions: Homo sapiens
Protein skinhead-1 = biological target: T2, Protein skinhead-1 (Caenorhabditis elegans, UniProt P34707); format: functional
T2 sequence (P34707 whole entry): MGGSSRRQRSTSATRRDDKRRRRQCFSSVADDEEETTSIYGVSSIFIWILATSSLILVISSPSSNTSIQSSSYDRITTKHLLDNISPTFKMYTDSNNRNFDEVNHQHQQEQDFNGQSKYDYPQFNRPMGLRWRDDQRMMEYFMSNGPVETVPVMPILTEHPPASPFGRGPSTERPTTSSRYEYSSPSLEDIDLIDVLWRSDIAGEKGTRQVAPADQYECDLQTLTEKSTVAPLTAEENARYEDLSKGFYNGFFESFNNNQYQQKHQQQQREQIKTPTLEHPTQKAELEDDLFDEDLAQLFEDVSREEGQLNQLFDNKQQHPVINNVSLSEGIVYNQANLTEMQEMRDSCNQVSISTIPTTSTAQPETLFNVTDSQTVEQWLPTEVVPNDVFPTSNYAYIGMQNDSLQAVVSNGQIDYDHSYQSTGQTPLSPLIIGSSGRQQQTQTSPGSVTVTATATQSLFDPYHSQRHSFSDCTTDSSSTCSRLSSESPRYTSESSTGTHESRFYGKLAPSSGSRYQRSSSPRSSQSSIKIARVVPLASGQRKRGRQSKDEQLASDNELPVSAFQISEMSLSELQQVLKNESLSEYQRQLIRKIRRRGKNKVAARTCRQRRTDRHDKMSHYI

[12] = biological target: T3, Acyl-homoserine lactone acylase PvdQ (Pseudomonas aeruginosa (strain LESB58), UniProt Q9I194); experiment: P. aeruginosa PvdQ acylase inhibitors, dose response, biochemical, fluorescence, plate reader and imaging, cherry-picks (AID 493231)
T3 sequence (Q9I194 whole entry): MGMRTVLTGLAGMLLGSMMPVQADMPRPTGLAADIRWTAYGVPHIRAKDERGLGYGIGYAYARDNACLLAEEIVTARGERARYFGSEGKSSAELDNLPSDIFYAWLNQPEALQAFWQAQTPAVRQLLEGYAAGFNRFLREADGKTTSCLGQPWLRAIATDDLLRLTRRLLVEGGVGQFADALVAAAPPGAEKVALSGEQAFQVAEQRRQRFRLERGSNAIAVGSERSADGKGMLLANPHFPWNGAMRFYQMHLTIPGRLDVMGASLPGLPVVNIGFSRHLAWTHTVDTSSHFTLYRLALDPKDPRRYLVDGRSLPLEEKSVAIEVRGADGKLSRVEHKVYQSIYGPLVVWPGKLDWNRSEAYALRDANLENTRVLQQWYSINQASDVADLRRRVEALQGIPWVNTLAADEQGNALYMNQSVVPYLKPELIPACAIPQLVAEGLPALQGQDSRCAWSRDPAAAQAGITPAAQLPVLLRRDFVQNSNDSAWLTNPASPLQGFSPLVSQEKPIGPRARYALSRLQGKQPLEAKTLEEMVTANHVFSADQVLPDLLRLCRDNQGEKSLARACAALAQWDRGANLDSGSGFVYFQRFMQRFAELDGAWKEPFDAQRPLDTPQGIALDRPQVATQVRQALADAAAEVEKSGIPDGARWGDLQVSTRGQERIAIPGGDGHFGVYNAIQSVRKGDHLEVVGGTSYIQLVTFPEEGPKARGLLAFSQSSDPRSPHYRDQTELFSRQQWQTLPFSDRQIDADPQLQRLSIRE

Chain of Neurotensin receptor type 1 (P30989 whole entry): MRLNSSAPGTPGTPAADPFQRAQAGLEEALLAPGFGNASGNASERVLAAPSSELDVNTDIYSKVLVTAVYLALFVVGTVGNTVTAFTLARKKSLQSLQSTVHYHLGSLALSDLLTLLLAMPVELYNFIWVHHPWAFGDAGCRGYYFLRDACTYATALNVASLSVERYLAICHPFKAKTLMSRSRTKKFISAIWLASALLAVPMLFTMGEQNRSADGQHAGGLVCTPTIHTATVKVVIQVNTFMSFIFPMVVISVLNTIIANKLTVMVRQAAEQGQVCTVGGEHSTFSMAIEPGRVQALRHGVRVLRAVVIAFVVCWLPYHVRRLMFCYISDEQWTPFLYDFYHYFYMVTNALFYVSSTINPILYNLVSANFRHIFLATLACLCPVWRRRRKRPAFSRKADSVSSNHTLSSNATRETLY
Chain of Melanocortin receptor 4 (P32245 whole entry): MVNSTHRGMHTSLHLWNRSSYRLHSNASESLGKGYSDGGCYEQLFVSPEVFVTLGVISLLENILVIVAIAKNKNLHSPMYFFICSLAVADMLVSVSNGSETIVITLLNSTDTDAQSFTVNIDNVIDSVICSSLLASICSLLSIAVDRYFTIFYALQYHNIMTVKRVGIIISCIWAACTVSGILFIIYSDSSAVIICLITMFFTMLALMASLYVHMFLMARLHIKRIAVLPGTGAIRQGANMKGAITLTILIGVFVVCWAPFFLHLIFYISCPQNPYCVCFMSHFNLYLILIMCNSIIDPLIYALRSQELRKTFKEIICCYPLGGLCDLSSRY
Chain of Alkaline phosphatase, placental type (P05187 whole entry): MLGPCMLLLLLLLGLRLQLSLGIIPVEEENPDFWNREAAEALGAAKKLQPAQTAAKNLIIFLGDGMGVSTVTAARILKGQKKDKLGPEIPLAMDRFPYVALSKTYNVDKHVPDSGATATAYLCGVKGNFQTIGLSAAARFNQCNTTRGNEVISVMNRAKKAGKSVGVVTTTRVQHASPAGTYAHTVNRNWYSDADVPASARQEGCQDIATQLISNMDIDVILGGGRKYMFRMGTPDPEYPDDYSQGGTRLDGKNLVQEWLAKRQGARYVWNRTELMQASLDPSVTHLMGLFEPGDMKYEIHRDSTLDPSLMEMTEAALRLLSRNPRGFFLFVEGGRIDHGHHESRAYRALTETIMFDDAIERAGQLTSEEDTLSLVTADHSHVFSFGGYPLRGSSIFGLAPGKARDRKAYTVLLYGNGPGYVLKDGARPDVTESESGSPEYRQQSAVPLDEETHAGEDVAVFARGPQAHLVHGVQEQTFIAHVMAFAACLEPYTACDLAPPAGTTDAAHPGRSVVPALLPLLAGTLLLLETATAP
Chain of FAD-linked sulfhydryl oxidase ALR (P55789 whole entry): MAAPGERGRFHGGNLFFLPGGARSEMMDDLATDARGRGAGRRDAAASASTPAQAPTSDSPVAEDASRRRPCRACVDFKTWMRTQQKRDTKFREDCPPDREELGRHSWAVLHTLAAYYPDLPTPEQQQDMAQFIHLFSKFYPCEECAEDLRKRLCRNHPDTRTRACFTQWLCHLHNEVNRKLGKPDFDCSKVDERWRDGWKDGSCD

COc1cccc(C=NNc2nn3cnnc3c3ccccc23)c1O
IC50 [1]: > 100 µM (inactive)

COc1cccc(OC)c1C(=O)Oc1ccc2c(c1)O/C(=C\c1ccncc1)C2=O
EC50 [2]: 15.9 µM (active)

O=C1NC(=O)N(c2ccccc2)C(=O)/C1=C\C=C\Nc1ccccc1
IC50 (Insulin-degrading enzyme): > 55.9 µM (not active) | IC50 [3]: > 55.7 µM (not active)

CCCOc1ccc(C(=O)c2ccccc2C(=O)OC2CCOC2=O)cc1OCCC (stereo unspecified)
IC50 (Melanocortin receptor 4): > 64.6 µM (inactive) | EC50 [2]: 19.8 µM (active) | IC50 [4]: > 64.6 µM (inactive)

Cn1nc(-c2ccc(Cl)cc2)c2cc(C(=O)NCCCN3CCCC3)sc21
EC50 (BJ [5]): 23.1 µM (active) | AC50 [6]: 6.39 µM (active) | EC50 [7]: 4.65 µM (active) | EC50 [8]: 4.01 µM (active) | EC50 (BJ [9]): > 150 µM (inconclusive) | EC50 [10]: 12.4 µM (active) | EC50 (BJ [11]): 9.41 µM (active)

C#CCSc1ncc(-c2ccccc2)cn1
IC50 (Protein skinhead-1): 15.3 µM (active) | AC50 [12]: 6.14 µM (active)
